Experimental data as given in PubChem BioAssay (NCI).
Where “and” joins values, the source holds several entries; their conditions need not be identical. Identical values can stand only once.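 These data come from cells grown in 96-well plates and exposed to compound for 48 hours at five concentrations. GI50 is the concentration that inhibits growth by half. The concentration for full growth arrest is given as TGI.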

What was measured:
Assay in all cases: NCI-60 cell line screen, 48 h
PC-3 prostate = system: PC-3 prostate
SN12C renal = system: SN12C renal
CCRF-CEM leukemia = system: CCRF-CEM leukemia
TK-10 renal = system: TK-10 renal
SR leukemia = system: SR leukemia
HT29 colon = system: HT29 colon
KM12 colon = system: KM12 colon
EKVX NSCLC = system: EKVX NSCLC
SK-MEL-5 melanoma = system: SK-MEL-5 melanoma
K-562 leukemia = system: K-562 leukemia

| SMILES | TGI (PC-3 prostate) [µM] | TGI (SN12C renal) [µM] | TGI (CCRF-CEM leukemia) | TGI (TK-10 renal) [µM] | TGI (SR leukemia) [µM] | TGI (HT29 colon) [µM] | TGI (KM12 colon) [µM] | TGI (EKVX NSCLC) [µM] | TGI (SK-MEL-5 melanoma) [µM] | TGI (K-562 leukemia) [µM] | GI50 (SN12C renal) [µM] | GI50 (CCRF-CEM leukemia) [µM] | GI50 (TK-10 renal) [µM] | GI50 (HT29 colon) [µM] | GI50 (KM12 colon) | GI50 (SK-MEL-5 melanoma) [µM] | GI50 (K-562 leukemia) | GI50 (PC-3 prostate) [µM] | GI50 (SR leukemia) [µM] | GI50 (EKVX NSCLC) [µM] |
| --- | --- | --- | --- | --- | --- | --- | --- | --- | --- | --- | --- | --- | --- | --- | --- | --- | --- | --- | --- | --- |
| Cc1cn(CC2(CO)CCC2)c(=O)[nH]c1=O | > 100 | > 100 | > 100 µM | > 100 | > 100 | > 100 | > 100 | > 100 | > 100 | > 100 |  |  |  |  |  |  |  |  |  |  |
| COC(=O)c1ccc(Oc2nc3ccc(C(F)(F)F)cc3nc2-c2ccccc2)cc1 | > 100 | > 100 | > 100 µM | > 100 | > 100 | > 100 | > 100 | > 100 | > 100 | > 100 |  |  |  |  |  |  |  |  |  |  |
| CCN(CC)CCOCCOCC1(c2ccc(Cl)c(Cl)c2)CCCCC1 | 23.3 | 24.9 | 14.7 µM | 21.7 | 26.8 | 7.53 | 17.3 | 23 | 4.88 | 12.7 |  |  |  |  |  |  |  |  |  |  |
| Cc1cc(C)n(CN(CCCCO)Cn2nc(C)cc2C)n1 | 57.7 | 67 | 1.74 µM | > 100 | 28.7 | 37.1 | 60.6 | 76.3 | > 100 | 52.7 |  |  |  |  |  |  |  |  |  |  |
| Cc1ccc2c(ccc3ncc(CNc4ccc(NS(C)(=O)=O)cc4)c32)[nH]1 | 68.7 | 92.5 | > 100 µM | > 100 | 50.8 | 93.6 | 36.6 | > 100 | 39.4 | 46.3 |  |  |  |  |  |  |  |  |  |  |
| CCSC1=N/C(=C\c2ccco2)C(Nc2ccc(C)cc2)=N1 | > 100 | > 100 | > 100 µM | > 100 | > 100 | > 100 | > 100 | > 100 | > 100 | > 100 |  |  |  |  |  |  |  |  |  |  |
| COc1ccc2c(c1)C(=O)c1c-2n(CCCN=[N+]=[N-])c(=O)c2cc([N+](=O)[O-])ccc12 | > 100 | 2.01 | 0.0275 µM and 0.0272 µM | 37.3 | 13.4 | > 100 | > 100 | > 100 | 0.0849 | 16.3 | 0.314 | < 0.001 | 15.2 | 2.82 | 0.558 µM and 3.4 µM | 0.0106 | 0.0782 µM and 0.0653 µM |  |  |  |
| CCOc1cc2c(cc1O)C=C[C@@H]1[C@@H]2CC[C@]2(C)[C@@H](O)CC[C@@H]12 | > 100 | > 77.3 | > 42.5 µM | > 92 | 23.7 | 24.3 | 20.9 | > 100 | 23.6 | > 100 |  |  |  |  |  |  |  |  |  |  |
| COc1ccccc1N1C(=O)CSC1c1cccc(Oc2ccccc2)c1 (configuration not stated) | 40 | 31.9 | > 100 µM | 48.4 | 70.5 | 46.7 | 75.6 | 43.4 | 29.9 | 70.2 |  |  |  |  |  |  |  |  |  |  |
| CC(=O)OC(OC(C)=O)c1c2ccccc2cc2ccccc12 | 90.5 | 63.4 | 18 µM | 61.2 | 56.3 | 28.6 | 33.4 | 50.4 | 25.8 | 27.8 |  |  |  |  |  |  |  |  |  |  |
| CCOC(=O)c1ccc(Nc2nc3ccccc3n3cccc23)cc1 | > 100 | 39.4 | 0.108 µM | > 100 | > 100 | > 100 | > 100 | > 100 | > 100 | > 100 |  |  |  |  |  |  |  |  |  |  |
| COc1cc(-c2n/c(=C\c3c(O)[nH]c4ccccc34)cc3c2=Nc2ccccc2-3)ccc1F | 48.8 | 34 | > 100 µM | 13 | 20.2 | 16.1 | > 100 | > 100 | 24.1 | 62.1 | 10.7 | 4.75 | 3.89 | 4.02 | 7.7 µM | 4.45 | 5.88 µM | 10.2 | 2.05 | 20.9 |
| O=C(N/N=C\c1ccc(N(CCCl)CCCl)cc1)c1cccnc1 | > 100 | > 100 | > 100 µM | > 100 | > 100 | > 100 | > 100 | > 100 | > 100 | > 100 | 20.6 | 5.91 | 33.4 | > 100 | 61.9 µM | 36.3 | 32.2 µM | 65.4 | 3.1 | > 100 |
| N#CC12CC(C=O)=C(N)C1(C#N)CC(C=O)=C2N (configuration not stated) | > 100 | > 100 | > 100 µM | > 100 | > 100 | > 100 | > 100 | > 100 | 54.1 | > 100 |  |  |  |  |  |  |  |  |  |  |
| CC(C)CC(C#CCCOC(=O)c1ccccc1)OC(=O)c1ccccc1 (configuration not stated) | > 10 | > 10 | > 10 µM | > 10 | > 10 | > 10 | > 10 | > 10 | > 10 | > 10 |  |  |  |  |  |  |  |  |  |  |
| COc1cc(/C=C2\C(=O)Nc3ccc(Cl)cc32)cc(OC)c1OC | > 100 | > 100 | > 100 µM | 78.3 | > 100 | > 100 | > 100 | > 100 | > 100 | > 100 | 26.5 | 7.28 | 24 | 6.71 | 4.07 µM | 12.7 | 4.44 µM | 2.93 | 3.29 | 13.8 |
| CCOC(=O)C1=NN(c2ccc(C)cc2)C2(c3ccccc3)C=C(c3ccccc3)N(C)CCN12 (configuration not stated) | > 100 | > 100 | > 100 µM | > 100 | > 100 | > 100 | > 100 | > 100 | > 100 | > 100 |  |  |  |  |  |  |  |  |  |  |
| Cn1c2ccccc2c2c3c(c4c5ccccc5n(C)c4c21)C(=O)N(Cc1ccccc1)C3=O | > 100 | > 100 | > 100 µM | > 100 | 51.6 | > 100 | > 100 | > 100 | > 100 | > 100 |  |  |  |  |  |  |  |  |  |  |
| NS(=O)(=O)c1ccc(N=Nc2ccc(O)cc2)cc1 | > 100 | > 100 | > 100 µM | > 100 | > 100 | > 100 | > 100 | > 100 | > 100 | > 100 |  |  |  |  |  |  |  |  |  |  |
| Fc1ccccc1-c1cc(=S)c2cc3c(cc2[nH]1)OCO3 | > 80.2 | > 100 | > 100 µM | > 100 | > 100 | 40.2 | > 100 | > 100 | > 30.7 | > 100 |  |  |  |  |  |  |  |  |  |  |
| CC(C)(C)OC(=O)NCC(c1c[nH]c2cc(Br)ccc12)c1c[nH]c2cc(Br)ccc12 | 31.1 | 33.6 | > 100 µM | 35.9 | > 100 | 33.5 | 37.3 | 32.8 | 34.2 | > 100 |  |  |  |  |  |  |  |  |  |  |
| O=C(CSc1nc2ccc(I)cc2c(=O)n1Cc1ccccc1)NNC(=S)Nc1ccccc1 | > 100 | > 100 | > 100 µM | > 100 | 23.3 | > 100 | > 100 | 6.14 | > 100 | > 100 |  |  |  |  |  |  |  |  |  |  |
| COc1nc2ccc(Cl)c(C(O)c3ccccc3)c2nc1OC (configuration not stated) | > 100 | 40.3 | 29.5 µM | > 100 | 27.3 | > 100 | > 100 | > 100 | 30.3 | > 100 |  |  |  |  |  |  |  |  |  |  |
| Cc1ccc(C(=O)C2C=C(c3ccc(C)cc3)SC3C=CCC32)cc1 (configuration not stated) | 39.4 | 33.1 | 38.3 µM | 53.3 | 58.2 | 43.1 | 30.3 | 97.6 | 29.2 | > 100 |  |  |  |  |  |  |  |  |  |  |
| CC12CP(=O)(O)CC1C2(Cl)Cl (configuration not stated) | > 100 | > 100 | > 100 µM | > 100 | > 100 | > 100 | > 100 | > 100 | > 100 | > 100 |  |  |  |  |  |  |  |  |  |  |
| CCCCCCCCCCCCCC(=O)OCC(CCS(=O)(=O)O[C@H]1CC[C@@]2(C)C(=CC[C@@H]3C2CC[C@]2(C)C(=O)CCC32)C1)OC(=O)CCCCCCCCCCCCC (some centres not stated) | > 100 | > 100 | > 100 µM | > 100 | > 100 | > 100 | > 100 | > 100 | > 100 | > 100 |  |  |  |  |  |  |  |  |  |  |
| C=CC(=C)CCC(Br)C(C)(C)Br (configuration not stated) | > 100 | > 100 | 50.8 µM | > 100 | > 100 | > 100 | > 100 | > 100 | > 100 | > 100 |  |  |  |  |  |  |  |  |  |  |
| CN1/C(=C\N=O)C(C)(C)N(O)C1(C)C | > 100 | > 100 | > 100 µM | > 100 | > 100 | > 100 | > 100 | > 100 | > 100 | > 100 |  |  |  |  |  |  |  |  |  |  |
| Cc1cc2c3c(nc2c2cc[nH]c(C)c12)CCCC3 | 16.6 | 3.39 | 6.48 µM | 4.64 | 4.29 | 6.25 | 7.13 | 8.44 | 2.89 | 5.65 |  |  |  |  |  |  |  |  |  |  |
| CN(CCO)CCC1COc2ccccc2O1 (configuration not stated) | > 10 | > 10 | > 10 µM | > 10 | > 10 | > 10 | > 10 | > 10 | > 10 | > 10 |  |  |  |  |  |  |  |  |  |  |
